# Measured values published in PubChem BioAssay AID391 (SGCOxCompounds, 2006).
# Target: Serine/threonine-protein kinase PAK 6 (Homo sapiens) (UniProt Q9NQU5)
# Assay: ligand-induced stabilization of human PAK6 kinase – biophysical, DSF, SYPRO orange, recombinant protein (AID 391)
# Details: recombinant PAK6, DSF thermal shift, at 10 µM, protein 2 µM, buffer 10 mM HEPES, pH 7.5, NaCl 150 mM, run set 1, stronger effect = higher value
# Sequence of Serine/threonine-protein kinase PAK 6 (Homo sapiens) (Q9NQU5 whole entry, looked up): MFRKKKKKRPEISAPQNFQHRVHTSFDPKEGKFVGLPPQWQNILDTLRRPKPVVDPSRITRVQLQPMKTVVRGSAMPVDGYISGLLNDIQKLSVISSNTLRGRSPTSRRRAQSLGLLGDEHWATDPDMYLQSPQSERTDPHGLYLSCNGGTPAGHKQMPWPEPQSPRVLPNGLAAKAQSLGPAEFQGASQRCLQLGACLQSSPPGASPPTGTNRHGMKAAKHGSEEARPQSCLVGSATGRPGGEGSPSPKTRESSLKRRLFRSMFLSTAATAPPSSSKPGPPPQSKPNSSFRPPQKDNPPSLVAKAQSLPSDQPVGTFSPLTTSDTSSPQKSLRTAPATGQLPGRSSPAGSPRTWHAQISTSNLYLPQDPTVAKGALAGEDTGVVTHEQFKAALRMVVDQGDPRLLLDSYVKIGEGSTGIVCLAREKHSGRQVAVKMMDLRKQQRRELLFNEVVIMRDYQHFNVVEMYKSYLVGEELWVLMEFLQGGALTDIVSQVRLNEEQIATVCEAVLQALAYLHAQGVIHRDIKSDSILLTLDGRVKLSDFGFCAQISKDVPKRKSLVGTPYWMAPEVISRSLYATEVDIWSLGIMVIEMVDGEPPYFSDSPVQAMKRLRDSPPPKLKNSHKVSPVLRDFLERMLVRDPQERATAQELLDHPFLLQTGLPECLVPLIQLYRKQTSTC
row,SMILES,Tm shift
1,N=C(N)SCCCn1cc(C2=C(c3c[nH]c4ccccc34)C(=O)NC2=O)c2ccccc21,3.13 Celsius
2,O=Nc1c(-c2c(O)[nH]c3ccc(S(O)(O)O)cc23)[nH]c2ccccc12,3.24 Celsius
3,NC(=O)Nc1sc(-c2ccccc2)cc1C(N)=O,3.43 Celsius
4,O=C1NC(=O)c2c1c1c3ccccc3n3c1c1c2c2ccccc2n1[C@@H]1CCC3O1,6.44 Celsius
5,CC(C)n1cnc2c(Nc3cccc(Cl)c3)nc(NCCO)nc21,4.44 Celsius
6,CC(C)C(CO)Nc1nc(Nc2cccc(Cl)c2)c2ncn(C(C)C)c2n1 (centres undefined),5.88 Celsius
7,O=C1Cc2c([nH]c3ccc(N(O)O)cc23)-c2ccccc2N1,3.92 Celsius
8,NCCCn1cc(C2=C(c3c[nH]c4ccccc34)C(=O)NC2=O)c2ccccc21,4.48 Celsius

# Same assay, conditions: recombinant PAK6, DSF thermal shift, at 10 µM, protein 2 µM, buffer 10 mM HEPES, pH 7.5, NaCl 150 mM, run set 2, stronger effect = higher value
row,SMILES,Tm shift
1,CC(O)(O)C1(O)C[C@@H]2O[C@@]1(C)n1c3ccccc3c3c4c(c5c6ccccc6n2c5c31)C(=O)NC4 (some centres undefined),7.7 Celsius
2,NCCNc1ncc(C(N)=O)c(Nc2cccc(C(F)(F)F)c2)n1,5.21 Celsius
3,Cn1cc(/C=C2\C(=O)Nc3ccc(S(N)(=O)=O)cc32)c2ccccc21,4.26 Celsius
4,Nc1nc(Nc2ccc(S(N)(=O)=O)cc2)nn1C(=S)Nc1c(F)cccc1F,5.64 Celsius
5,CC(C)n1cnc2c(Nc3cccc(Cl)c3)nc(NCCO)nc21,3.2 Celsius
6,O=Nc1c(-c2c(O)[nH]c3ccccc23)[nH]c2ccccc12,8.7 Celsius
7,Clc1ccc(-c2cnc3ccc(NC4CCOCC4)nn23)cc1,3.5 Celsius
8,OCC(O)CCO/N=C1/C(c2c(O)[nH]c3ccccc23)=Nc2ccccc21 (centres undefined),3.3 Celsius
9,Cc1cc(Nc2nc(-c3ccccc3)nc3ccccc23)n[nH]1,5.45 Celsius
10,O=C1Cc2c([nH]c3ccc(Br)cc23)-c2ccccc2N1,3.2 Celsius
11,O=C1NCc2c1c1c3ccccc3[nH]c1c1[nH]c3ccccc3c21,3.1 Celsius
12,NC(=O)c1ccc(-c2nc(-c3ccc4c(c3)OCCO4)c(-c3ccccn3)[nH]2)cc1,4.8 Celsius
13,CCN(CC)CCNC(=O)c1c(C)[nH]c(/C=C2\C(=O)Nc3ccc(Cl)cc32)c1C,3.8 Celsius
14,O=Nc1c(-c2c(O)[nH]c3cc(Br)ccc23)[nH]c2ccccc12,3.4 Celsius
15,N#Cc1ccc(-c2cnc3ccc(NC4CCOCC4)nn23)cc1,3.3 Celsius
16,CCn1cnc2c(Nc3cccc(Cl)c3)nc(N[C@@H]3CCCC[C@@H]3N)nc21,7 Celsius
